# Measurements taken from the kinase profiling compilation of Christmann-Franck et al. (2016).
# How the values were obtained:
# Assay in all cases: KINOMEscan competition binding
# Conditions in all cases: compound 10.0 µM
# PAK7 (human) = PAK7 (human) (UniProt Q9P286)
# MAP3K11 (human) = MAP3K11 (human) (UniProt Q16584)
# CSNK2A2 (human) = CSNK2A2 (human) (UniProt P19784)
# MAP3K12 (human) = MAP3K12 (human) (UniProt Q12852)
# YSK4 (human) = YSK4 (human) (UniProt Q56UN5)
# EPHA1 (human) = EPHA1 (human) (UniProt P21709)
# AXL (human) = AXL (human) (UniProt P30530)
# MARK2 (human) = MARK2 (human) (UniProt Q7KZI7)
# GSK3B (human) = GSK3B (human) (UniProt P49841)
# [1] = test system: FLT3 (human), P36888 [ITD]
# GRK7 (human) = GRK7 (human) (UniProt Q8WTQ7)
# ULK2 (human) = ULK2 (human) (UniProt Q8IYT8)
# CDK11B (human) = CDK11B (human) (UniProt P21127)
# STK24 (human) = STK24 (human) (UniProt Q9Y6E0)
# LIMK2 (human) = LIMK2 (human) (UniProt P53671)
# HIPK1 (human) = HIPK1 (human) (UniProt Q86Z02)
# NIM1 (human) = NIM1 (human) (UniProt Q8IY84)
# CSNK1G3 (human) = CSNK1G3 (human) (UniProt Q9Y6M4)
# AAK1 (human) = AAK1 (human) (UniProt Q2M2I8)
# SRPK2 (human) = SRPK2 (human) (UniProt P78362)
# FLT4 (human) = FLT4 (human) (UniProt P35916)
# ADCK4 (human) = ADCK4 (human) (UniProt Q96D53)
# TEC (human) = TEC (human) (UniProt P42680)
# [2] = test system: EGFR (human), P00533 [752-759 del]
# [3] = biological target: TYK2 JH2 pseudokinase (human) (UniProt P29597)
# BMPR1A (human) = BMPR1A (human) (UniProt P36894)
# [4] = test system: EGFR (human), P00533 [747-751 del / S ins]
# IRAK1 (human) = IRAK1 (human) (UniProt P51617)
# EIF2AK1 (human) = EIF2AK1 (human) (UniProt Q9BQI3)
# MAP2K5 (human) = MAP2K5 (human) (UniProt Q13163)
# [5] = test system: EGFR (human), P00533 [G719C]
# STK38L (human) = STK38L (human) (UniProt Q9Y2H1)
# STK17B (human) = STK17B (human) (UniProt O94768)
# NTRK3 (human) = NTRK3 (human) (UniProt Q16288)
# RPS6KA6 KD2 (human) = RPS6KA6 KD2 (human) (UniProt Q9UK32)
# PIP5K1A (human) = PIP5K1A (human) (UniProt Q99755)
# PTK2 (human) = PTK2 (human) (UniProt Q05397)
# MLTK (human) = MLTK (human) (UniProt Q9NYL2)
# MAP3K10 (human) = MAP3K10 (human) (UniProt Q02779)
# TSSK1B (human) = TSSK1B (human) (UniProt Q9BXA7)
# FGFR4 (human) = FGFR4 (human) (UniProt P22455)
# [6] = test system: PIK3CA (human), P42336 [H1047L]
# FLT3 (human), P36888 [ITD], sequence (P36888 whole entry, looked up, change not shown): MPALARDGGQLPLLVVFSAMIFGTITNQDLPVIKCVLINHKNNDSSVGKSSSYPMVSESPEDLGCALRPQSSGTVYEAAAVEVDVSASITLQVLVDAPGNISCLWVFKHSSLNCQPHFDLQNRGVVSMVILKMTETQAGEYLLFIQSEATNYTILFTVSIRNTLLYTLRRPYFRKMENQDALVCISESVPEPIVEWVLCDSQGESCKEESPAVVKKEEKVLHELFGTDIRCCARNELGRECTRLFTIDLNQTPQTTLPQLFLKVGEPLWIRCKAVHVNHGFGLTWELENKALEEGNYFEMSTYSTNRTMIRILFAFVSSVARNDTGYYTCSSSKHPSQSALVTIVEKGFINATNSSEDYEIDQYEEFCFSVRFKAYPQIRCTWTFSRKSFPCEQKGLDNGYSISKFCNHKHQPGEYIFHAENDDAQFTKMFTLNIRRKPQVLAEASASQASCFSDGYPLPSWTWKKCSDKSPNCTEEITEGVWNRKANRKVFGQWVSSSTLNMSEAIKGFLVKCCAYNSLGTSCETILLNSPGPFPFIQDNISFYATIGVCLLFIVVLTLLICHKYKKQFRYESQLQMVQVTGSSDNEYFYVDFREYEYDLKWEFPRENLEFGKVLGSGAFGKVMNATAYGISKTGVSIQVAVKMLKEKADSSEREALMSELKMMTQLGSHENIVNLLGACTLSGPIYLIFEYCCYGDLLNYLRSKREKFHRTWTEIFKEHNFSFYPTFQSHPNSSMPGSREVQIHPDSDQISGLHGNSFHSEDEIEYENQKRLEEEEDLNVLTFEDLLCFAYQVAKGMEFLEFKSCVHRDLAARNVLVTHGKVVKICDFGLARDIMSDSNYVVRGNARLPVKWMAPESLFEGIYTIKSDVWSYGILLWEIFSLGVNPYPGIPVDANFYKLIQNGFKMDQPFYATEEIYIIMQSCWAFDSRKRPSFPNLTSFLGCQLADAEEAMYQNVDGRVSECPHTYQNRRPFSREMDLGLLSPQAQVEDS
# STK38L (human), sequence (Q9Y2H1 whole entry, looked up): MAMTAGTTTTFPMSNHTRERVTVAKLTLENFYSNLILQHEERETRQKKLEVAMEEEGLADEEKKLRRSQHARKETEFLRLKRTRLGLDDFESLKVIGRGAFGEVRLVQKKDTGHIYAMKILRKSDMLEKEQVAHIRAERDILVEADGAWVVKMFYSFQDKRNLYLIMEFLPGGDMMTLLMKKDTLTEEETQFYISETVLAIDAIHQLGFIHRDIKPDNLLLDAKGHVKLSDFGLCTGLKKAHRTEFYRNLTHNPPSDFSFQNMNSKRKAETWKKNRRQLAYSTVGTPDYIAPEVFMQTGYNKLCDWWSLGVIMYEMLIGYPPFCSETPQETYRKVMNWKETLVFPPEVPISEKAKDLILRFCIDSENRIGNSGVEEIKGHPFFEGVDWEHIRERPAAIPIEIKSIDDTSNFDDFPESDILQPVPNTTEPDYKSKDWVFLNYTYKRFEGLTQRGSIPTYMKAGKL
# MAP3K10 (human), sequence (Q02779 whole entry, looked up): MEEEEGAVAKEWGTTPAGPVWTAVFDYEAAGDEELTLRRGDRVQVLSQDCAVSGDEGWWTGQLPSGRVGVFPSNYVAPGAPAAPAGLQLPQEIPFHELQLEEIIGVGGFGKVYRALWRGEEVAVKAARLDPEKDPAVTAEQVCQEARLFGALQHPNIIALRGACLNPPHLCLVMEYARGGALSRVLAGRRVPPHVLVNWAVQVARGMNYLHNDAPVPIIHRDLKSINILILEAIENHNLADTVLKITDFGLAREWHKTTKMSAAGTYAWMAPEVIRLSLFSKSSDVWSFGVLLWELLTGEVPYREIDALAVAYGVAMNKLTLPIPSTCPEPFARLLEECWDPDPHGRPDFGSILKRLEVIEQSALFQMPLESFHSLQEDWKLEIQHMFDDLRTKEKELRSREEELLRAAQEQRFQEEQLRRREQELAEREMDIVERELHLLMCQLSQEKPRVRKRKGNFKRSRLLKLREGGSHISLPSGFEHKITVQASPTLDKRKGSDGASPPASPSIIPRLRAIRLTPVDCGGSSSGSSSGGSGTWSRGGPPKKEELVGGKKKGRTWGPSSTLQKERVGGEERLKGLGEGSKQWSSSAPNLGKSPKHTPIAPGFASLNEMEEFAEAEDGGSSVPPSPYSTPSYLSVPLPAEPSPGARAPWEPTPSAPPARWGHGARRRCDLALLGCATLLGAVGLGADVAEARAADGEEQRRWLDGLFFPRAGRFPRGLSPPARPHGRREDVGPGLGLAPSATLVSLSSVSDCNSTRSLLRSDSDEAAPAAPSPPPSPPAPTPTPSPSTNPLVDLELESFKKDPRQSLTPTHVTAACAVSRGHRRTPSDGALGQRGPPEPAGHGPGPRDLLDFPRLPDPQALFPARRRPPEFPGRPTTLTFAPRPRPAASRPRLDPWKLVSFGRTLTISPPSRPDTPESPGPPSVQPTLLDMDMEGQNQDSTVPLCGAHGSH
# MAP2K5 (human), sequence (Q13163 whole entry, looked up): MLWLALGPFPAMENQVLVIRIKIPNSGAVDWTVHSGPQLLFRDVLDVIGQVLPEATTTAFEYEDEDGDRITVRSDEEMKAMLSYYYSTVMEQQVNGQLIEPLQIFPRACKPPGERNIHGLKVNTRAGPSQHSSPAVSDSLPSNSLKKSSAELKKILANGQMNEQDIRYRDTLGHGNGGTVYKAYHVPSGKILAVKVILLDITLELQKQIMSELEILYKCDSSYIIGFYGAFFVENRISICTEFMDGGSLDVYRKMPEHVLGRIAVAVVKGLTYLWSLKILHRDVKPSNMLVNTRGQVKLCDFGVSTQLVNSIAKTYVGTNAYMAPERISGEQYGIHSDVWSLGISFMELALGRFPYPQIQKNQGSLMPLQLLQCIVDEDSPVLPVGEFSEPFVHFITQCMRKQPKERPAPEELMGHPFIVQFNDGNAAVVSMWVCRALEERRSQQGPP
# FLT4 (human), sequence (P35916 whole entry, looked up): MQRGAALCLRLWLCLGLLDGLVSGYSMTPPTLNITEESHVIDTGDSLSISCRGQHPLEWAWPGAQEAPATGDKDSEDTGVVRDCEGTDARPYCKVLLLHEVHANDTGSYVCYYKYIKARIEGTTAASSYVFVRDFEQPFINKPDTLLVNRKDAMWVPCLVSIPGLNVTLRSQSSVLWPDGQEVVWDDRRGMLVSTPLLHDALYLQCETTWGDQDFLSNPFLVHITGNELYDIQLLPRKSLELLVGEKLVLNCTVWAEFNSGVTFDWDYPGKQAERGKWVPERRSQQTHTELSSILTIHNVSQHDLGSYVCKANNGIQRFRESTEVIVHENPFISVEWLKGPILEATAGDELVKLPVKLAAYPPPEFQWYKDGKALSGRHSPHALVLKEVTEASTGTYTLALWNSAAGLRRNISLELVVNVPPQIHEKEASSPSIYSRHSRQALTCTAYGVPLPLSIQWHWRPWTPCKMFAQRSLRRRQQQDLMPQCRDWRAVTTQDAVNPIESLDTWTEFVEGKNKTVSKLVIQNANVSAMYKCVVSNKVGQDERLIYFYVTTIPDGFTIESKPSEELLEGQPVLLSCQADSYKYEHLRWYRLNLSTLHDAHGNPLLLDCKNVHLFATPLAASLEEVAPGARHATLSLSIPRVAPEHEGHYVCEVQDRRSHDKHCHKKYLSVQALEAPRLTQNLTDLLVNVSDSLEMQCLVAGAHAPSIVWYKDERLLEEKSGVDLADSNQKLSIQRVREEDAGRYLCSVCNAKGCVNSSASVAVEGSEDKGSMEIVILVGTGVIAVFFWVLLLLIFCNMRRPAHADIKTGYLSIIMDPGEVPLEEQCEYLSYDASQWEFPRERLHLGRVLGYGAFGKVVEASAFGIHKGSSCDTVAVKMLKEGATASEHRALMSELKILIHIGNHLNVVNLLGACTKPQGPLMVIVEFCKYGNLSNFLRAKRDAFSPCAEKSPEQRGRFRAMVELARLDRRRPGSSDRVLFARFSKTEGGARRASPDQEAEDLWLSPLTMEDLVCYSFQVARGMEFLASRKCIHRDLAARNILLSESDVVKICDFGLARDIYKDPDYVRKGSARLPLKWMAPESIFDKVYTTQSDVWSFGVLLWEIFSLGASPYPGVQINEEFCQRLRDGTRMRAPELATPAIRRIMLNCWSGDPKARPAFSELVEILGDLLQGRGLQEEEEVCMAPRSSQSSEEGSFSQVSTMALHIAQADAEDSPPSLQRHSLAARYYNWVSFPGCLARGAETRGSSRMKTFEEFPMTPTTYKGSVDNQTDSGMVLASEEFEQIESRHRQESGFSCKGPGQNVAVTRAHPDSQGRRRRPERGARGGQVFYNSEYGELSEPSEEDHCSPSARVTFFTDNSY
# MAP3K12 (human), sequence (Q12852 whole entry, looked up): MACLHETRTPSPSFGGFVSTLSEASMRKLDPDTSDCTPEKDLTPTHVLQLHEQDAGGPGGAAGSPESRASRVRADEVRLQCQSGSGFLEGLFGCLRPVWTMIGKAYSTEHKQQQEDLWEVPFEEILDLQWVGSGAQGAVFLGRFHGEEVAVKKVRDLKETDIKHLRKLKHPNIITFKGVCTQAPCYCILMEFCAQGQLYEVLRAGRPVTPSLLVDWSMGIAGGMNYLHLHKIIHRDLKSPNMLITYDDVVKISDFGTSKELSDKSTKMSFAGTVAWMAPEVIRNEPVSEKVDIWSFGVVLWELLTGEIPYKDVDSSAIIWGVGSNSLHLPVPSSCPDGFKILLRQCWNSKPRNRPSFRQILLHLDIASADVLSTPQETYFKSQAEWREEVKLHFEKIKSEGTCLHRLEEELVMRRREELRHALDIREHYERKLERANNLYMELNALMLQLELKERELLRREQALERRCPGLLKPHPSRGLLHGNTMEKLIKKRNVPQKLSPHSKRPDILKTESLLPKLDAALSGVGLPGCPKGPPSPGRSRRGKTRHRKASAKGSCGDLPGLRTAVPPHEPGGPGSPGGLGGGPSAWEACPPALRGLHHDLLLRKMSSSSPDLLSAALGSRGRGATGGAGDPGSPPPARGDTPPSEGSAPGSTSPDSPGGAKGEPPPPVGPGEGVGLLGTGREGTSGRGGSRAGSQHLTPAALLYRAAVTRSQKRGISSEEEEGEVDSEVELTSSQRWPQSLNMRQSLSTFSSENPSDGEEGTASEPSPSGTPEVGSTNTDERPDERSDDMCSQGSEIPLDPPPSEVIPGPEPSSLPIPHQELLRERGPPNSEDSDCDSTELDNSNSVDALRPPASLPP
structure (smiles),measurement,setting,value
Cc1ccc(NC(=O)c2ccc(NC(=O)/C=C/CN(C)C)cc2)cc1Nc1nccc(-c2cccnc2)n1,"kinase still bound, per cent of control",PAK7 (human),72%
same,"kinase still bound, per cent of control",MAP3K11 (human),100%
same,"kinase still bound, per cent of control",CSNK2A2 (human),21%
same,"kinase still bound, per cent of control",MAP3K12 (human),94%
same,"kinase still bound, per cent of control",YSK4 (human),28%
same,"kinase still bound, per cent of control",EPHA1 (human),91%
same,"kinase still bound, per cent of control",AXL (human),90%
same,"kinase still bound, per cent of control",MARK2 (human),78%
same,"kinase still bound, per cent of control",GSK3B (human),87%
same,"kinase still bound, per cent of control",[1],46%
same,"kinase still bound, per cent of control",GRK7 (human),82%
same,"kinase still bound, per cent of control",ULK2 (human),30%
same,"kinase still bound, per cent of control",CDK11B (human),100%
same,"kinase still bound, per cent of control",STK24 (human),86%
same,"kinase still bound, per cent of control",LIMK2 (human),78%
same,"kinase still bound, per cent of control",HIPK1 (human),44%
same,"kinase still bound, per cent of control",NIM1 (human),92%
same,"kinase still bound, per cent of control",CSNK1G3 (human),71%
same,"kinase still bound, per cent of control",AAK1 (human),63%
same,"kinase still bound, per cent of control",SRPK2 (human),100%
same,"kinase still bound, per cent of control",FLT4 (human),88%
same,"kinase still bound, per cent of control",ADCK4 (human),60%
same,"kinase still bound, per cent of control",TEC (human),100%
same,"kinase still bound, per cent of control",[2],54%
same,"kinase still bound, per cent of control",[3],14%
same,"kinase still bound, per cent of control",BMPR1A (human),81%
same,"kinase still bound, per cent of control",[4],50%
same,"kinase still bound, per cent of control",IRAK1 (human),13%
same,"kinase still bound, per cent of control",EIF2AK1 (human),94%
same,"kinase still bound, per cent of control",MAP2K5 (human),66%
same,"kinase still bound, per cent of control",[5],45%
same,"kinase still bound, per cent of control",STK38L (human),100%
same,"kinase still bound, per cent of control",STK17B (human),64%
same,"kinase still bound, per cent of control",NTRK3 (human),82%
same,"kinase still bound, per cent of control",RPS6KA6 KD2 (human),67%
same,"kinase still bound, per cent of control",PIP5K1A (human),8%
same,"kinase still bound, per cent of control",PTK2 (human),70%
same,"kinase still bound, per cent of control",MLTK (human),78%
same,"kinase still bound, per cent of control",MAP3K10 (human),100%
same,"kinase still bound, per cent of control",TSSK1B (human),100%
same,"kinase still bound, per cent of control",FGFR4 (human),100%
same,"kinase still bound, per cent of control",[6],89%
